Experimental data from US9695155B2, “Herbicidal substituted pyrimidinyloxy benzene compounds” (E. I. DU PONT DE NEMOURS AND COMPANY, priority 2013, dated 2017).

Legend:
Assay in all cases: Test E preemergence
[1] = system: waterhemp; assay type: in vivo, Amaranthus rudis; details: for Waterhemp plant response rating: scale 0 to 100 (0 no effect, 100 complete control)
From the text: (§1) Seeds of plant species selected from corn (Zea mays), soybean (Glycine max), velvetleaf (Abutilon theophrasti), lambsquarters (Chenopodium album), wild poinsettia (Euphorbia heterophylla), palmer pigweed (Amaranthus palmeri), waterhemp (common waterhemp, Amaranthus rudis), surinam grass (Brachiaria decumbens), large (Lg) crabgrass (Digitaria sanguinalis), Brazilian crabgrass (Digitaria horizontalis), fall panicum (Panicum dichotomiflorum), giant foxtail (Setaria faberii), green foxtail (Setaria viridis), goosegrass (Eleusine indica), johnsongrass (Sorghum halepense), ragweed (common ragweed, Ambrosia elatior), barnyardgrass (Echinochloa crus-galli), sandbur (southern sandbur, Cenchrus echinatus), arrowleaf sida (Sida rhombifolia), Italian ryegrass (Lolium multiflorum), dayflower (Virginia (VA) dayflower, Commelina virginica), field bindweed (Convolvulus arvensis), morningglory (Ipomoea coccinea), nightshade (eastern black nightshade, Solanum ptycanthum), kochia (Kochia scoparia), yellow nutsedge (Cyperus esculentus), cocklebur (common cocklebur, Xanthium strumarium), smartweed (ladysthumb smartweed, and hairy beggarticks (Bidens pilosa), were planted into a silt loam soil and treated preemergence with test chemicals formulated in a non-phytotoxic solvent mixture which included a surfactant.
(§2) At the same time, plants from these crop and weed species and also horseweed (Canada horseweed, Conyza canadensis), waterhemp_RES1, (ALS & Triazine resistant common waterhemp, Amaranthus rudis), and waterhemp_RES2, (ALS & HPPD resistant common waterhemp, Amaranthus rudis) were planted in pots containing Redi-Earth® planting medium (Scotts Company, 14111 Scottslawn Road, Marysville, Ohio 43041) comprising spaghnum peat moss, vermiculite, wetting agent and starter nutrients were treated with postemergence applications of test chemicals formulated in the same manner. Plants ranged in height from 2 to 18 cm for postemergence treatments (1- to 4-leaf stage). Treated plants and controls were maintained in a greenhouse for 14 to 21 days, after which time all species were compared to controls and visually evaluated. Plant response ratings, summarized in Table E, are based on a scale of 0 to 100 where 0 is no effect and 100 is complete control. A dash (-) response means no test result.

[2] = system: surinam grass; assay type: in vivo, Brachiaria decumbens; details: for Surinam Grass plant response rating: scale 0 to 100 (0 no effect, 100 complete control)
From the text: as §1, §2

[3] = system: fall panicum; assay type: in vivo, Panicum dichotomiflorum; details: for Panicum, Fall plant response rating: scale 0 to 100 (0 no effect, 100 complete control)
From the text: as §1, §2

[4] = system: giant foxtail; assay type: in vivo, Setaria faberii; details: for Foxtail, Giant plant response rating: scale 0 to 100 (0 no effect, 100 complete control)
From the text: as §1, §2

[5] = system: green foxtail; assay type: in vivo, Setaria viridis; details: for Foxtail, Green plant response rating: scale 0 to 100 (0 no effect, 100 complete control)
From the text: as §1, §2

[6] = system: goosegrass; assay type: in vivo, Eleusine indica; details: for Goosegrass plant response rating: scale 0 to 100 (0 no effect, 100 complete control)
From the text: as §1, §2

[7] = system: ragweed; assay type: in vivo, Ambrosia elatior; details: for Ragweed plant response rating: scale 0 to 100 (0 no effect, 100 complete control)
From the text: as §1, §2

[8] = system: barnyardgrass; assay type: in vivo, Echinochloa crus-galli; details: for Barnyardgrass plant response rating: scale 0 to 100 (0 no effect, 100 complete control); for Plant response rating, Barnyardgrass: scale 0 to 100, 0 no effect, 100 complete control
From the text: as §1, §2

[9] = system: sandbur; assay type: in vivo, Cenchrus echinatus; details: for Sandbur plant response rating: scale 0 to 100 (0 no effect, 100 complete control)
From the text: as §1, §2

[10] = system: Italian ryegrass; assay type: in vivo, Lolium multiflorum; details: for Ryegrass, Italian plant response rating: scale 0 to 100 (0 no effect, 100 complete control)
From the text: as §1, §2

[11] = system: nightshade; assay type: in vivo, Solanum ptycanthum; details: for Nightshade plant response rating: scale 0 to 100 (0 no effect, 100 complete control)
From the text: as §1, §2

[12] = system: kochia; assay type: in vivo, Kochia scoparia; details: for Kochia plant response rating: scale 0 to 100 (0 no effect, 100 complete control)
From the text: as §1, §2

[13] = 125 g ai/ha, scale 0 to 100, 0 no effect, 100 complete control

Compound: Cc1cnc(Oc2cccc(C#N)c2-n2cc(C#N)cn2)nc1 [Compound 90]
- Waterhemp plant response rating ([1]; 16 g ai/ha): 0
- Waterhemp plant response rating ([1]; 31 g ai/ha): 0
- Waterhemp plant response rating ([1]; 62 g ai/ha): 20
- Plant response rating, Waterhemp [1, 13]: 100
- Surinam Grass plant response rating ([2]; 16 g ai/ha): 0
- Surinam Grass plant response rating ([2]; 31 g ai/ha): 0
- Surinam Grass plant response rating ([2]; 62 g ai/ha): 0
- Plant response rating, Surinam Grass [2, 13]: 0
- Panicum, Fall plant response rating ([3]; 16 g ai/ha): 0
- Panicum, Fall plant response rating ([3]; 31 g ai/ha): 0
- Panicum, Fall plant response rating ([3]; 62 g ai/ha): 0
- Plant response rating, Panicum, Fall [3, 13]: 80
- Foxtail, Giant plant response rating ([4]; 16 g ai/ha): 0
- Foxtail, Giant plant response rating ([4]; 31 g ai/ha): 0
- Foxtail, Giant plant response rating ([4]; 62 g ai/ha): 15
- Plant response rating, Foxtail, Giant [4, 13]: 50
- Foxtail, Green plant response rating ([5]; 16 g ai/ha): 0
- Foxtail, Green plant response rating ([5]; 31 g ai/ha): 0
- Foxtail, Green plant response rating ([5]; 62 g ai/ha): 10
- Plant response rating, Foxtail, Green [5, 13]: 50
- Goosegrass plant response rating ([6]; 16 g ai/ha): 0
- Goosegrass plant response rating ([6]; 31 g ai/ha): 0
- Goosegrass plant response rating ([6]; 62 g ai/ha): 5
- Plant response rating, Goosegrass [6, 13]: 50
- Ragweed plant response rating ([7]; 16 g ai/ha): 0
- Ragweed plant response rating ([7]; 31 g ai/ha): 50
- Ragweed plant response rating ([7]; 62 g ai/ha): 50
- Plant response rating, Ragweed [7, 13]: 75
- Barnyardgrass plant response rating ([8]; 16 g ai/ha, preemergence): 0
- Barnyardgrass plant response rating ([8]; 31 g ai/ha, preemergence): 0
- Plant response rating, Barnyardgrass ([8]; Preemergence, 62 g ai/ha): 0
- Plant response rating, Barnyardgrass ([8]; preemergence, 125 g ai/ha): 40
- Sandbur plant response rating ([9]; 16 g ai/ha): 0
- Sandbur plant response rating ([9]; 31 g ai/ha): 0
- Sandbur plant response rating ([9]; 62 g ai/ha): 0
- Plant response rating, Sandbur [9, 13]: 0
- Ryegrass, Italian plant response rating ([10]; 16 g ai/ha): 0
- Ryegrass, Italian plant response rating ([10]; 31 g ai/ha): 0
- Ryegrass, Italian plant response rating ([10]; 62 g ai/ha): 0
- Plant response rating, Ryegrass, Italian [10, 13]: 0
- Nightshade plant response rating ([11]; 16 g ai/ha): 10
- Nightshade plant response rating ([11]; 31 g ai/ha): 10
- Nightshade plant response rating ([11]; 62 g ai/ha): 80
- Plant response rating, Nightshade [11, 13]: 80
- Kochia plant response rating ([12]; 16 g ai/ha): 0
- Kochia plant response rating ([12]; 31 g ai/ha): 50
- Kochia plant response rating ([12]; 62 g ai/ha): 100
- Plant response rating, Kochia [12, 13]: 100
